Assays:
HIV = assay: Anti-HIV activity (assay not specified); type: cell-based; conditions: Human immunodeficiency virus 1, quoted in text
gp120JRFL [1] = assay: Biacore biosensor binding to immobilized gp120; design: species or system HIV-1; conditions: for Biacore signal on gp120-coated surface: compound at 1.5 μM, FIG. 2
Method: GP120JRFL was immobilized on the surface of a CM-chip to a surface density of 12000. Inhibitors prepared in the running buffer was flown over the surface at 30 μl/min. The sensorgram was recorded and normalized against the buffer alone sensorgram, using a Biacore 3000 instrument.
Biacore biosensor evaluation of gp120-inhibitor binding. (See FIG. 2 for results). The selective binding of entry inhibitors with gp120 was evaluated on a Biacore 3000 biosensor. Purified gp120JRFL was immobilized onto the flow cell surface of a CM-5 chip via EDC/NHS activated covalent modification, according to the protocol described by Biacore Inc. (Uppsala, Swiden). The surface density of immobilized gp120 reached 12000-15000 RU. Soluble CD4 and BSA coated surfaces were also immobilized on separate flow cell surfaces as controls.

gp120JRFL [2] = assay: Circular dichroism analysis of gp120 conformational change; design: species or system HIV-1
Method: (§1) CD spectra was collected on a Jasco J-720 spectropolarimeter at ambient temperature. Protein concentration in the sample were kept a ˜1 μM, with the exception of sCD4 (1.8 μM) in 20 mM Tris/150 mM NaCl, pH 8.0. Concentration of compound used in the experiments were as indicated.
(§2) Circular Dichroism (CD) analysis. (Method for FIG. 3 results). The CD spectra of purified gp120JRFL (1.2 μM in 5 mM Tris, pH 8.0/150 mM NaCl) were obtained, in the presence and absence of an inhibitor, on a Jasco J-720 spectropolarimeter at ambient (21-23° C.) temperature. Samples containing varying protein-to-compound mole ratios were placed in a quartz cuvette with a 1-mm pathlength. The molar ellipticity (θ) was monitored between 200 nm and 250 nm as the average of 12-20 scans. Soluble CD4 was used as a negative protein controls. Compound, BMS-066, with no anti-HIV activity (EC50>5 μM) was included as a compound control.

sCD4 = target: T1, sCD4 (Homo sapiens, UniProt P01730); assay: Circular dichroism analysis, sCD4 negative protein control; conditions: sCD4 1.8 μM, compound 3.5 μM, FIG. 3B
T1 construct: purchased ImmunoDiagnostics, Inc. (Woburn, Mass.)
Method: as §1, §2

gp120JRFL/CD4 = gp120JRFL/CD4 (Human immunodeficiency virus 1, UniProt Q75760); assay: gp120/CD4 binding assay (ELISA); design: species or system HIV-1
Method: The effect of BMS-806 on the gp120/CD4 binding. The gp120JRFL in supernatant was captured onto anti-gp120 antibody (D7324) coated plate. The compound and soluble CD4 were added to the plate simultaneously and CD4 bound to gp120 was detected by ELISA using anti-CD4 antibody OKT4 as a primary antibody and the secondary antibody goat-anti-mouse-peroxidase conjugate. Value are the means±S.E.M which represent multiple separate experiments.
IC50 values show concentration of compound needed to inhibit 50% of binding of gp120 and CD4.
The gp120 capturing ELISA methods was derived from Moore et al (42). Briefly, the 96 well assay plates (Immulon 4, Dynatech Technologies Inc. Chantilly, Va.) were coated overnight at 4° C. with 100 μl per well of 10 ug/ml D7324 solution in 100 mM bicarbonate buffer (pH9.6). The antibody-coated plate was washed twice with TBS (20 mM Tris-HCl, 500 mM NaCl, pH7.5). All wells were blocked with 100 μl of 3% BSA in TBS for ½ hour at room temperature. Excess BSA was removed with three TBS washes. Gp120 (purified or in supernatant) were diluted in buffer C (50 mM Tris-HCl, pH 7.5, 100 mM NaCl, 1% BSA) and added to D7324 coated plate(s) at 100μl/well. After incubating at 37° C. for 2 hours, plate(s) was washes three times with Buffer (20 mM Tris-HCl, 500 mM NaCl, 0.05% Tween-20, pH7.5) and the bound gp120 was detected by Anti-gp120-peroxidase conjugate (Cross-reactive, ImmunoDiagnostics, Inc) at a final dilution of 1:1000 in BufferC. Bound antibody-peroxidase conjugates were detected with TMB solution (Pierce) and the optical density was measured at 450 nm. Known concentration of the purified gp120IIIB (ABI) were used to generate a standard curve for gp120 quantitation.
The assay is similar to the gp120 capturing ELISA method described above with minor modifications.(43). After coating gp120 onto the plates, sCD4 was added to the plate at a final concentration of 200 ng/ml for one hour at room temperature. […] After washing with BufferB, 100 μl of TMB solution was added and the optical density was read at 450 nm.

[3] = system: HIV-1 single-round infectious reporter virus; assay: Anti-HIV single cycle infection assay (luciferase reporter virus, HeLa/CD4/CCR5 cells); type: cell-based; conditions: Human immunodeficiency virus 1, HeLa-CD4/CCR5, 72 h, read-out: Anti-HIV single cycle infection EC50
Method: EC50 values show concentration of compound needed to inhibit 50% HIV viral replication.
Single-round infectious reporter virus was produced by co-transfecting human embryonic Kidney 293 cells with an HIV-1 envelope DNA expression vector and a proviral cDNA containing an envelope deletion mutation and the luciferase reporter gene inserted in place of HIV-1 nef sequences (Chen, 1994). Transfections were performed using LipofectAMINE PLUS reagent as described by the manufacturer (Life Technologies, Gaithersburg, Md.). The resulting reporter viruses are then used to infect HeLa/CD4/CCR5 cells in the following manner. Serial diluted compound was added to HeLa/CD4/CCR5 cells plated in 96 well plates at a cell density of 5×10^4 cells per well in 100 μl Dulbecco's Modified Eagle Medium containing 10% fetal Bovine serum. One hundred microliter of single-round infectious reporter virus in Dulbecco's Modified Eagle Medium was then added to the plated cells and compound at a multiplicity of infection (MOI) of 0.01. Samples were harvested 72 hours after infection and viral infection was monitored by measuring luciferase expression from viral DNA in the infected cells using a luciferase reporter gene assay kit as described by the manufacturer.

gp120JRFL [4] = assay: FlashPlate binding of [3H]BMS-853 to gp120, incl. sCD4 competition; design: species or system HIV-1; conditions: radioactive inhibitor
Method: Interaction of gp120JRFL (wild type) with ^3H-BMS-853. FlashPlate was coated with increase amount of gp120 and constant amount of ^3H-BMS-853 (16.5 nM) in BufferC was added to each well and the binding assay was allowed to proceed as described in material and methods. Points are averages of duplicate or triplicate determinations.
Competition binding of ^3H-BMS-853 binding to gp120 by soluble CD4.(sCD4) ^3H-BMS-853 bound to gp120 in the presence of varying amount of sCD4 was determined as described under material and methods. Points shown were obtained in a signal experiment, performed in duplicate. Data were analyzed with Prism computer program. (GraphPad Software, Inc).
FlashPlate assay. The binding of [^3H]BMS-853 to gp120 was performed on FlashPlate (NEN,SMP200). Coating of gp120 onto FlashPlate was essentially the same as described for gp120 capturing ELISA. After brief washes of gp120 coated FlashPlate with TBS, [^3H]BMS-853 was added to a final concentration of 16.5 nM in BufferC and the plate was kept at room temperature overnight. The plate was washed once with TBS and then counted in TopCount® Microplate Scintillation counter. Varying concentrations of gp120 were used to show the gp120 dose-dependent binding of [^3H]BMS-853 (FIG. 1).

[5] = system: V1V2V3 loop-deleted gp120JRFL; assay: Binding of [3H]BMS-853 to V1V2V3 loop-deleted gp120; design: species or system HIV-1; conditions: radioactive inhibitor
HIV-1 JRFL = assay: Activity against laboratory adapted HIV-1 strain JRFL; type: cell-based; conditions: Human immunodeficiency virus 1, CCR5
Method: (§3) Viruses and cells: (Method for Table 2 results). T-tropic (X4) strains of laboratory adapted HIV-1 were amplified in MT-2 cells and titered using a virus yield assay (17). The laboratory adapted M-tropic (R5) viruses were grown in macrophages or PM1 cells and p24 ELISA assay was used to detect the virus. The TCID50/ml (tissue culture infectious dose) was calculated by the method of Spearman-Karber. Titration of viral stocks and assaying for compound sensitivity were carried out in the cell lines the viruses were originally amplified in. The 50% inhibitory concentration (EC50) was calculated by using the exponential form of the median effect equation where (Fa)=1/[1+(ED50/drug conc.)^m] (17).

HIV-1 LAV = assay: Activity against laboratory adapted HIV-1 strain LAV; type: cell-based; conditions: Human immunodeficiency virus 1
Method: as §3

HIV-1 NL4-3 = assay: Activity against laboratory adapted HIV-1 strain NL4-3; type: cell-based; conditions: Human immunodeficiency virus 1, NL43
Method: as §3

HIV-1 Bru = assay: Activity against laboratory adapted HIV-1 strain Bru; type: cell-based; conditions: Human immunodeficiency virus 1
Method: as §3

HIV-1 SF-162 = assay: Activity against laboratory adapted HIV-1 strain SF-162; type: cell-based; conditions: Human immunodeficiency virus 1, CCR5
Method: as §3

HIV-1 Bal = assay: Activity against laboratory adapted HIV-1 strain Bal; type: cell-based; conditions: Human immunodeficiency virus 1, BAL, CCR5, Virus Bal
Method: as §3

HIV-1 A0-18 = assay: Activity against laboratory adapted HIV-1 strain A0-18; type: cell-based; conditions: Human immunodeficiency virus 1
Method: as §3

HIV-1 SF-2 = assay: Activity against laboratory adapted HIV-1 strain SF-2; type: cell-based; conditions: Human immunodeficiency virus 1
Method: as §3

HIV-1 IIIB = assay: Activity against laboratory adapted HIV-1 strain IIIB; type: cell-based; conditions: Human immunodeficiency virus 1, IIIB
Method: as §3

HIV-1 MN = assay: Activity against laboratory adapted HIV-1 strain MN; type: cell-based
Method: as §3

HIV-1 RF = assay: Activity against laboratory adapted HIV-1 strain RF; type: cell-based
Method: as §3

[6] = system: laboratory strains of B subtype HIV-1; assay: Activity against panel of laboratory strains of B subtype HIV-1; type: cell-based; conditions: Human immunodeficiency virus 1, read-out: EC50 values against 11 of the 13 laboratory strains
Method: as §3

SMILES: COc1ncc(OC)c2c(C(=O)C(=O)N3CCN(C(=O)c4ccccc4)CC3)c[nH]c12 [BMS-043]
- EC50 (HIV): 0.8 nM
- Biacore signal on gp120-coated surface (gp120JRFL [1]): intermediate signals
- attenuation of the protein CD signal (gp120JRFL [2]; gp120JRFL 1.2 μM, inhibitor 2.1 μM): 40%
- attenuation of the sCD4 CD signal (sCD4): no attenuation

SMILES: COc1ccc(OC)c2c(C(=O)C(=O)N3CCN(C(=O)c4ccccc4)CC3)c[nH]c12 [BMS-853]
- IC50 (gp120JRFL/CD4): 24 ± 9 nM
- EC50 [3]: 0.1 nM

SMILES: COc1ccc(OC)c2c(C(=O)C(=O)N3CCN(C(=O)c4ccccc4)CC3)c[nH]c12 [[^3H]BMS-853]
- binding to full-length recombinant gp120JRFL (gp120JRFL [4]): bind effectively
- binding to V1V2V3 loop-deleted gp120JRFL [5]: bound significantly less effective

SMILES: COc1cnc(-c2cnc(N(C)C)cn2)c2[nH]cc(C(=O)C(=O)N3CCN(C(=O)c4ccccc4)CC3)c12 [BMS-038]
- Biacore response at various concentrations on gp120-coated surface (gp120JRFL [1]; various concentrations): dose-dependent increase of reflective index

SMILES: Cc1ccc(C)c2c(C(=O)C(=O)N3CCN(C(=O)c4ccccc4)CC3)c[nH]c12 [BMS-033]
- EC50 (HIV): > 5000 nM
- attenuation of the gp120JRFL CD signal (gp120JRFL [2]; compound at 2 μM, FIG. 3C): did not cause any attenuation

SMILES: COc1ccnc2[nH]cc(C(=O)C(=O)N3CCN(C(=O)c4ccccc4)C[C@H]3C)c12 [BMS-806, (R)—N-(benzoyl)-3-methyl-N′-[(4-methoxy-7-azaindol-3-yl)-oxoacetyl]-piperazine]
- IC50 (gp120JRFL/CD4): 280 nM
- EC50 [3]: 0.6 nM
- EC50 (HIV-1 JRFL): 1.47 nM
- EC50 (HIV-1 LAV): 1.98 nM
- EC50 (HIV-1 NL4-3): 2.94 nM
- EC50 (HIV-1 Bru): 3.26 nM
- EC50 (HIV-1 SF-162): 3.46 nM
- EC50 (HIV-1 Bal; coreceptor CCR5, host Macrophage): 8.4 nM
- EC50 (HIV-1 Bal; coreceptor CCR5, host PM1): 15.5 nM
- EC50 (HIV-1 A0-18): 23.6 nM
- EC50 (HIV-1 SF-2): 26.5 nM
- EC50 (HIV-1 IIIB): 39.4 nM
- EC50 (HIV-1 MN; Human immunodeficiency virus 1, Virus MN, coreceptor CXCR4, host MT-2): 844 nM
- blocking of infection (HIV-1 MN; virus MN): not efficiently blocked
- EC50 (HIV-1 RF; Human immunodeficiency virus 1): 6.03 µM
- blocking of infection (HIV-1 RF; virus RF): not efficiently blocked
- EC50 (HIV): 1 nM
- Biacore signal on gp120-coated surface (gp120JRFL [1]): intermediate signals
- EC50 [6]: 0.85 to 75.8 nM

SMILES: O=C(C(=O)N1CCN(C(=O)c2ccccc2)CC1)c1c[nH]c2ccccc12 [BMS-216]
- IC50 (gp120JRFL/CD4): 1800 ± 300 nM
- EC50 [3]: 200 nM

From patent US20040162298A1, “Method of treating HIV infection by preventing interaction of CD4 and gp120” (priority 2002, published 2004)
